Legend:
[1] = test system: Isolated male Wistar rat epididymal adipocytes; design: method as in PMID 29843022; details: adrenaline-stimulated, means ± SDs, three runs, read-out: IC50 of free fatty acid release; cited from earlier work
[2] = test system: Isolated male Wistar rat epididymal adipocytes; design: method as in PMID 29843022; details: 20 μM Zn complex, means ± SDs, three runs; cited from earlier work
[3] = test system: type 2 diabetic ob/ob mice; assay: Daily oral treatment of ob/ob mice for 28 days: blood glucose, body weight, water intake; type: in vivo
Method: The anti-diabetic effects of both [Zn(hmpt)2] and [Zn(hmps)2] were examined in ob/ob mice. The ob/ob and +/+ mice were used as type 2 diabetic and normal (non-diabetic) mice, respectively. The ob/ob (10-week-old) and +/+ (10-week-old) mice received daily oral treatment of either Zn complexes dissolved in PEG-400 or PEG-400 only, respectively. The mice received oral treatments of [Zn(hmpt)2] or [Zn(hmps)2] at doses of 2.5–10 mg Zn/kg or 1.0–5.0 mg Zn/kg for 28 days, respectively. Blood glucose levels (BGL) were measured using a Glucocard (Arkray, Kyoto, Japan) just before treatment with the Zn complexes, and the doses were regulated based on the BGL. Over 28 days, BGL, body weight, food intake, and water intake were measured every day. The number of normal mice (+/+ mice), control mice (ob/ob mice), [Zn(hmpt)2]-treated, and [Zn(hmps)2]-treated mice was 6, 8, 8, and 8 in the initial animal experiments, respectively. This was modified to 6, 6, 7, and 8 after the end of experiments as two control mice died naturally by the end of experiments, and one [Zn(hmpt)2]-treated mouse died from an accident during the oral glucose tolerance test.

[4] = test system: type 2 diabetic ob/ob mice; assay: Histopathology and morphometric analysis of pancreas and liver (HE staining); type: in vivo; details: 14-week-old mice
Method: Excised pancreas and liver from 14-week-old mice were immediately fixed in 10% buffered formalin for a week, sectioned at a thickness of 3 μm, and stained with HE for histopathological examination. HE-stained tissue sections were scanned using a Moticam T2 (Shimadzu Co., Kyoto, Japan) to prepare digital images. Both pancreatic islet area and glycogen and fat deposition areas were calculated with the dedicated image processing software WinROOF (Mitani Corp., Tokyo, Japan).

[5] = test system: type 2 diabetic ob/ob mice; type: in vivo
Method: (§1) After OGTT, HbA1c levels were measured in blood obtained from the mouse tail vein using an immunoassay with a DCA 2000 analyzer (Bayer-Sankyo Co., Ltd., Tokyo, Japan). The mice were subjected to a 12-h fast and blood samples were collected from the orbital vein or postcaval vein under isoflurane anesthesia using heparinized tools. Collected samples were then centrifuged at 650× g for 10 min at 4 °C, and the resultant plasma samples were used to analyze various biochemical parameters. The levels of AST, ALT, BUN, TG, T-CHO, and ALP in plasma samples were determined using a Fuji Dry Chem system. The plasma levels of insulin and adiponectin were determined using an ultra-sensitive Mouse Insulin ELISA Kit (Morinaga Institute of Biological Science, Inc., Kanagawa, Japan) and an adiponectin immunoassay kit (R&D Systems Inc., Minneapolis, MN, USA), respectively. After collecting the blood samples, mice were subjected to dissection under isoflurane anesthesia, and the resultant tissue samples were washed in saline. Each of the samples was dehydrated for a week in desiccators, weighed, and then heated in 5% HNO3 (5 mL) for 5 h at 110 °C in a closed system. The resultant solution was centrifuged at 1250× g for 15 min, and the supernatant was diluted using 5% HNO3. Both Zn and Se concentrations in organs were determined with an ICP-MS Agilent 7700x/Mass Hunter instrument (Agilent Technologies Inc., Santa Clara, CA, USA). The Zn and Se concentrations in each sample were calculated using linear regression of the standard curves prepared from standard solutions of the respective trace elements.

[6] = test system: type 2 diabetic ob/ob mice; assay: Oral glucose tolerance test (OGTT) after 28 days treatment; type: in vivo
Method: After treatment with [Zn(hmpt)2] or [Zn(hmps)2] for 28 days, OGTTs were performed. The ob/ob mice and +/+ mice were fasted for 12-h and glucose (1 g/kg body weight) was given orally. Blood samples were obtained from the tail vein at 0, 15, 30, 45, 60, 90, and 120 min after glucose administration. Blood glucose concentrations were measured using a Glucocard.

[7] = Organ distribution of Zn and Se by ICP-MS after 28 days oral treatment; type: in vivo, mice
Method: as §1

[8] = test system: type 2 diabetic ob/ob mice; assay: Triglyceride and glycogen contents in the liver; type: in vivo; details: ob/ob mice after 28 days oral treatment
Method: Lipids in the liver were extracted according to modified Folch method. TG in the extracted lipids was detected using the triglyceride E test wako (Wako Pure Chemicals Co., Osaka, Japan). Glycogen in the liver was extracted with a strong base (30% KOH aq). Then, ethanol precipitation methods (using 95% ethanol and saturated Na2SO4), hydrolysis, and neutralization (with 2.4 M HCl aq and 0.8 M NaOH aq) of the glycogen extracts were performed, resulting in degradation to glucose solution. To detect the glucose levels in the solution using the glucose CII test wako (Wako Pure Chemicals Co., Osaka, Japan), glycogen levels in the liver were estimated. Because the liver sample of normal mice was used up during TG detection and ICP-MS analysis, glycogen content in the liver could not be detected.

## O.O.O.O.O.O.O.O=S(=O)([O-])[O-].[Zn+2] [ZnSO4, Zinc sulfate heptahydrate, reference compound]
[1]
  IC50: 585 ± 305 µM
[2]
  Glucose Uptake: none

## Cc1occc(=[Se])c1[O-].Cc1occc(=[Se])c1[O-].[Zn+2] [[Zn(hmps)2], bis(3-hydroxy-2-methyl-4(H)-pyran-4-seleno)Zn]
[3]; [Zn(hmpt)2] 2.5–10 mg Zn/kg, [Zn(hmps)2] 1.0–5.0 mg Zn/kg
  Blood glucose level by the end of treatment: approximately 200 mg/dL
[3]; control 12.6 ± 1.6 g, p < 0.01 vs. control
  Water intake on the final day: 6.9 ± 0.5 g
[3]; loss seen day 22 to 25, recovered after dose reduction
  Body weight change during treatment: Body weight gains
[4]; among normal, control and treated mice
  Pancreatic islet numbers per section: not significantly changed
[4]; between control and treated mice
  Glycogen and fat deposition area ratio in the liver: no significant differences
[4]; compared with normal mice
  Pancreatic islet area ratio and size: significantly increased
[2]
  Glucose Uptake: 138 ± 6 µg/10^6 Cells
[5]; mouse, in vivo, po
  ALP (plasma): 550 ± 89 **^,##,†† U/L
  ALT (plasma): 355 ± 138 **^,##,†† U/L
  AST (plasma): 200 ± 55 **^,##,†† U/L
  BUN (plasma): 24 ± 3 **^,## mg/dL
[5]; ob/ob mice after 28 days oral treatment, control 2.2 ± 1.0
  Insulin (fasting plasma): 1.4 ± 0.6 ng/mL
[5]; ob/ob mice after 28 days oral treatment, control 7.9 ± 0.8
  HbA1c: 6.7 ± 0.4 **^,## %
[5]; ob/ob mice after 28 days oral treatment, control 8.2 ± 1.1
  Adiponectin (plasma): 9.0 ± 0.8 µg/mL
[5]; ob/ob mice after 28 days oral treatment, control 83 ± 16
  TG (plasma): 87 ± 11 mg/dL
[5]; ob/ob mice after 28 days oral treatment, control 195 ± 16
  T-CHO (plasma): 186 ± 16 mg/dL
[6]; 1 g glucose/kg oral, after 28 days treatment, compared with control mice
  Area under the blood glucose concentration-time curve (AUC) in OGTT: significantly decreased
[6]; ob/ob mice after 28 days oral treatment, 12-h fast, control 237 ± 52 mg/dL
  Fasting blood glucose level (0 min of OGTT): 172 ± 38 mg/dL
[7]; [Zn(L)] = 1.0, [Zn(L)2] = 0.5
  Δ[Zn]/Δ[Se] molar ratio, bone: 6.9
  Δ[Zn]/Δ[Se] molar ratio, kidney: 0.25
  Δ[Zn]/Δ[Se] molar ratio, liver: 0.61
  Δ[Zn]/Δ[Se] molar ratio, pancreas: 27
[7]; dry tissue, ob/ob mice after 28 days oral treatment, control 0.5 ± 0.2
  Se concentration, bone: 1.9 ± 0.6 µg/g
[7]; dry tissue, ob/ob mice after 28 days oral treatment, control 1.3 ± 0.4
  Se concentration, muscle: 2.5 ± 0.4 **^,#,†† µg/g
[7]; dry tissue, ob/ob mice after 28 days oral treatment, control 2.1 ± 0.3
  Se concentration, liver: 5.1 ± 0.6 µg/g
[7]; dry tissue, ob/ob mice after 28 days oral treatment, control 2.3 ± 0.6
  Se concentration, pancreas: 3.4 ± 0.8 **^,##,†† µg/g
[7]; dry tissue, ob/ob mice after 28 days oral treatment, control 2.7 ± 0.8
  Se concentration, spleen: 9.1 ± 2.4 **^,##,†† µg/g
[7]; dry tissue, ob/ob mice after 28 days oral treatment, control 6.4 ± 0.2
  Se concentration, kidney: 12.7 ± 2.0 **^,##,†† µg/g
[7]; dry tissue, ob/ob mice after 28 days oral treatment, control 44 ± 5
  Zn concentration, liver: 46 ± 6 ^##^,† µg/g
[7]; dry tissue, ob/ob mice after 28 days oral treatment, control 47 ±10
  Zn concentration, muscle: 41 ± 2 µg/g
[7]; dry tissue, ob/ob mice after 28 days oral treatment, control 67 ± 3
  Zn concentration, kidney: 68 ± 4 µg/g
[7]; dry tissue, ob/ob mice after 28 days oral treatment, control 100 ± 17
  Zn concentration, spleen: 95 ± 12 µg/g
[7]; dry tissue, ob/ob mice after 28 days oral treatment, control 133 ± 19
  Zn concentration, pancreas: 158 ± 28 µg/g
[7]; dry tissue, ob/ob mice after 28 days oral treatment, control 154 ± 7
  Zn concentration, bone: 162 ± 10 *^,^†† µg/g
[7]; mouse, in vivo, po
  Δ[Se], bone: 18 nmol/g
  Δ[Se], kidney: 81 nmol/g
  Δ[Se], liver: 38 nmol/g
  Δ[Se], pancreas: 14 nmol/g
  Δ[Se], plasma: 6 nmol/g
  Δ[Zn], bone: 124 nmol/g
  Δ[Zn], kidney: 20 nmol/g
  Δ[Zn], liver: 23 nmol/g
  Δ[Zn], pancreas: 375 nmol/g
  Δ[Zn], plasma: 6 nmol/g
[7]; ob/ob mice after 28 days oral treatment, control 0.6 ± 0.1
  Se concentration, plasma: 1.1 ± 0.2 **^,##,†† µg/mL
[7]; ob/ob mice after 28 days oral treatment, control 2.1 ± 0.1
  Zn concentration, plasma: 2.5 ± 0.2 **^,## µg/mL
[8]; control 0.08 ± 0.04
  Glycogen content in the liver: 0.04 ± 0.01 mg/g liver
[8]; control 437 ± 139
  TG content in the liver: 443 ± 42 mg/g liver

Reference: PMC5751249, “Anti-Diabetic Effect of Organo-Chalcogen (Sulfur and Selenium) Zinc Complexes with Hydroxy-Pyrone Derivatives on Leptin-Deficient Type 2 Diabetes Model ob/ob Mice” (International Journal of Molecular Sciences, 2017)
